Data published in patent US20140187784A1, “RADIOACTIVE QUINOLINONE DERIVATIVE AND PHARMACEUTICAL DRUG COMPRISING THE SAME” (Nihon Medi-Physics Co., Ltd., priority 2012, published 2014).
Like-named read-outs stand apart in the source and are kept apart here.

Legend:
[1] = target: T1, CYP11B2 (Homo sapiens, UniProt P19099); conditions: reported by Stefanie Hahner et al., J Clin Endocrinol Metab 2008; cited from earlier work
T1 sequence (P19099 25-503): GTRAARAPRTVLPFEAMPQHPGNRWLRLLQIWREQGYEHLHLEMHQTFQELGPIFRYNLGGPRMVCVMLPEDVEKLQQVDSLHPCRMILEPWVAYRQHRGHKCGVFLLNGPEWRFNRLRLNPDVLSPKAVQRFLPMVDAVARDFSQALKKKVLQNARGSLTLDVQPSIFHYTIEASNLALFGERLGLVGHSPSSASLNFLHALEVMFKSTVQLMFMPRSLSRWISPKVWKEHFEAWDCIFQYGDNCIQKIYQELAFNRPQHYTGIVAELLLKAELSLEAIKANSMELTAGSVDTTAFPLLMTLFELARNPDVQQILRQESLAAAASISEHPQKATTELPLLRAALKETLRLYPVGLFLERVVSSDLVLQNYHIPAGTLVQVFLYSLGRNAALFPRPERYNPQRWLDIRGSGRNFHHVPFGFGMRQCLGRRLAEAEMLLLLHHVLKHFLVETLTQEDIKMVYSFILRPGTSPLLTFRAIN

[2] = target: T1, CYP11B2; experiment: Inhibition of aldosterone production in V79-B2 cells expressing human CYP11B2 (ELISA); type: cell-based; set-up: expressed in transfected cells; host or cells: Chinese hamster lung-derived fibroblast V79 cells (V79-B2); conditions: for Selectivity factor: IC50 against cortisol production/IC50 against aldosterone production, selectivity factor for CYP11B2; for IC50: V79-B2 cells, corticosterone 100 nmol/L, 4 hours, unlabeled form, read-out: IC50 against aldosterone production; for selectivity factor compared with IMTO: selectivity factor for CYP11B2, Table 6
Experimental: (§1) Chinese hamster lung-derived fibroblast V79 cells (obtained from European Collection of Cell Cultures (ECACC) via DS Pharma Biomedical Co., Ltd.) were allowed to express human CYP11B2 and human CYP11B1 to prepare V79-B2 and V79-B1, respectively. V79-B2 or V79-B1 was inoculated to a microplate and cultured overnight. Then, corticosterone and 11-deoxycortisol were added at final concentrations of 100 nmol/L into the culture supernatants of V79-B2 and V79-B1, respectively. At the same time, iodometomidate (IMTO) or the unlabeled form of PAY15, PAY21, PAY27, or PAY54 synthesized in Example 2, 5, 8, or 12 was added at a final concentration of 10^−4 to 10^3 nmol/L into the culture supernatants. One hour later, the culture supernatant of V79-B1 was recovered, and the concentration of cortisol, which is a metabolite of CYP11B1, was measured by enzyme-linked immunosorbent assay (ELISA). Four hours later, the culture supernatant of V79-B2 was recovered, and the concentration of aldosterone, which is a metabolite of CYP11B2, was measured by ELISA. […] IC50 against cortisol production/IC50 against aldosterone production was calculated and used as a selectivity factor for CYP11B2.

[3] = target: T2, human CYP11B1 (Homo sapiens, UniProt P15538); experiment: Inhibition of cortisol production in V79-B1 cells expressing human CYP11B1 (ELISA); type: cell-based; conditions: 11-deoxycortisol 100 nmol/L, 1 hour, unlabeled form, read-out: IC50 against cortisol production
T2 construct: expressed in transfected cells; host or cells: Chinese hamster lung-derived fibroblast V79 cells (V79-B1)
T2 sequence (P15538 25-503): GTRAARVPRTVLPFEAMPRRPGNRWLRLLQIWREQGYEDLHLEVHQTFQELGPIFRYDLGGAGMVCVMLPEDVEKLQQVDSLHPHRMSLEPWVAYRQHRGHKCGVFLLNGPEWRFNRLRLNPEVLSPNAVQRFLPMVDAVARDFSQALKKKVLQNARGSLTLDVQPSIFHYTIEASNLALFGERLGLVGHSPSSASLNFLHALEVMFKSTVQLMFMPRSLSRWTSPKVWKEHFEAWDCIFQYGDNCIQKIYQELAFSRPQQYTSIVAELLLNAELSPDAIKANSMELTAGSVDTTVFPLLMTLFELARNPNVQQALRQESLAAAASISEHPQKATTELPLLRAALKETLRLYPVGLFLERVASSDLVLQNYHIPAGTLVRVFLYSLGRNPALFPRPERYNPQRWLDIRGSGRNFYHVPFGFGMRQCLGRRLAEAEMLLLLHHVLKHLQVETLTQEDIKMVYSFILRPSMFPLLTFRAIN
Experimental: as §1

[4] = Pharmacokinetic and distribution experiment (radioactivity in blood and excised organs after tail vein injection); type: in vivo; conditions: ddy mice; for Adrenal gland/Blood ratio / Adrenal gland/Kidney ratio / Adrenal gland/Liver ratio / Radioactivity Distribution, Adrenal gland / Radioactivity Distribution, Blood / Radioactivity Distribution, Heart / Radioactivity Distribution, Kidney / Radioactivity Distribution, Large intestine / Radioactivity Distribution, Liver / Radioactivity Distribution, Lung / Radioactivity Distribution, Pancreas / Radioactivity Distribution, Small intestine / Radioactivity Distribution, Spleen / Radioactivity Distribution, Stomach / Radioactivity Distribution, Thyroid: tail vein injection, 18.5 kBq (0.5 μCi)
Experimental: (§2) The HPLC fraction of [^125I]PAY15 obtained in Example 3 was concentrated and then diluted with saline. The resulting solution was used in administration. 100 μL of the solution (18.5 kBq (0.5 μCi)) was injected to the tail vein of each of five ddy mice (6 weeks old). Five minutes later, each mouse was decapitated, and blood was collected. Then, organs (adrenal gland, pancreas, heart, lung, stomach, small intestine, large intestine, liver, spleen, kidney, and thyroid gland) were excised. After measurement of their weights, the radioactivities of blood and each excised organ were measured. Also, the point in time when each mouse was decapitated was changed to 5, 15, 30, 60, and 120 minutes later to perform similar operation.
The HPLC fraction of [^125I]PAY21 obtained in Example 6 was concentrated and then diluted with saline. The resulting solution was used in administration to perform the same operation as in Evaluation 1.
as §2, with “[^18F]PAY27 obtained” for “The HPLC fraction of [^125I]PAY15 obtained”, “Example 10” for “Example 3”, “was” for “was concentrated and then”, “solution (14.8” for “solution (18.5”, “kBq (4” for “kBq (0.5”, “and thigh bone)” for “and thyroid gland)”
as §2, with “[^18F]PAY54 obtained” for “The HPLC fraction of [^125I]PAY15 obtained”, “Example 13” for “Example 3”, “was” for “was concentrated and then”, “solution (14.8” for “solution (18.5”, “kBq (4” for “kBq (0.5”, “and thigh bone)” for “and thyroid gland)”

SMILES: C[C@H](c1ccccc1)n1cncc1C(=O)OCCF [FETO, fluoroetomidate]
- Selectivity factor [1]: 0.145

SMILES: O=C1CCc2cc(-c3cncc(I)c3)cc3c2N1CCC3 [PAY15, 9-(5-iodopyridin-3-yl)-1,2,6,7-tetrahydro-5H-pyrido[3,2,1-ij]quinolin-3-one]
- Selectivity factor [2]: 223.95
- IC50 [2]: 0.63 nM
- selectivity factor compared with IMTO [2]: higher than that of IMTO
- IC50 [3]: 141 nM

SMILES: O=C1CCc2cc(-c3cncc(I)c3)cc3c2N1CC3 [PAY21, 8-(5-iodopyridin-3-yl)-1,2,5,6-tetrahydro-4H-pyrrolo[3,2,1-ij]quinolin-4-one]
- Selectivity factor [2]: 26.09
- IC50 [2]: 0.81 nM
- selectivity factor compared with IMTO [2]: higher than that of IMTO
- IC50 [3]: 21.1 nM

SMILES: O=C1CCc2cc(-c3cncc(OCCF)c3)cc3c2N1CCC3 [PAY27, 9-(5-(2-fluoroethyloxy)pyridin-3-yl)-1,2,6,7-tetrahydro-5H-pyrido[3,2,1-ij]quinolin-3-one]
- Selectivity factor [2]: 81.42
- IC50 [2]: 0.97 nM
- selectivity factor compared with IMTO [2]: higher than that of IMTO
- IC50 [3]: 78.6 nM

SMILES: O=C1CCc2cc(-c3cncc(OCCF)c3)cc3c2N1CC3 [PAY54, 8-(5-(2-fluoroethyloxy)pyridin-3-yl)-1,2,5,6-tetrahydro-4H-pyrrolo[3,2,1-ij]quinolin-4-one]
- Selectivity factor [2]: 55.49
- IC50 [2]: 0.24 nM
- selectivity factor compared with IMTO [2]: higher than that of IMTO
- IC50 [3]: 13.1 nM

SMILES: O=C1CCc2cc(-c3cncc([125I])c3)cc3c2N1CCC3 [[^125I]PAY15, 9-(5-[^125I]iodopyridin-3-yl)-1,2,6,7-tetrahydro-5H-pyrido[3,2,1-ij]quinolin-3-one]
- radioactivity accumulation in the adrenal gland compared with blood and periadrenal tissues ([4]; at an early stage after administration): high radioactivity accumulation
- Adrenal gland/Blood ratio ([4]; 5 min): 1.74 ± 0.12
- Adrenal gland/Kidney ratio ([4]; 5 min): 1.42 ± 0.03
- Adrenal gland/Liver ratio ([4]; 5 min): 1.70 ± 0.23
- Radioactivity Distribution, Adrenal gland ([4]; 5 min): 8.7 ± 1.7 % dose/g
- Radioactivity Distribution, Blood ([4]; 5 min): 5.0 ± 1.2 % dose/g
- Radioactivity Distribution, Heart ([4]; 5 min): 3.6 ± 0.8 % dose/g
- Radioactivity Distribution, Kidney ([4]; 5 min): 6.1 ± 1.2 % dose/g
- Radioactivity Distribution, Large intestine ([4]; 5 min): 1.9 ± 0.8 % dose/g
- Radioactivity Distribution, Liver ([4]; 5 min): 5.1 ± 1.1 % dose/g
- Radioactivity Distribution, Lung ([4]; 5 min): 7.4 ± 1.6 % dose/g
- Radioactivity Distribution, Pancreas ([4]; 5 min): 4.0 ± 0.9 % dose/g
- Radioactivity Distribution, Small intestine ([4]; 5 min): 3.7 ± 0.9 % dose/g
- Radioactivity Distribution, Spleen ([4]; 5 min): 4.1 ± 0.8 % dose/g
- Radioactivity Distribution, Stomach ([4]; 5 min): 3.5 ± 1.2 % dose/g
- Radioactivity Distribution, Thyroid ([4]; 5 min): 71.6 ± 50.0 % dose/g
- Adrenal gland/Blood ratio ([4]; 15 min): 1.18 ± 0.15
- Adrenal gland/Kidney ratio ([4]; 15 min): 1.24 ± 0.17
- Adrenal gland/Liver ratio ([4]; 15 min): 1.81 ± 0.07
- Radioactivity Distribution, Adrenal gland ([4]; 15 min): 7.3 ± 3.9 % dose/g
- Radioactivity Distribution, Blood ([4]; 15 min): 4.9 ± 0.3 % dose/g
- Radioactivity Distribution, Heart ([4]; 15 min): 2.6 ± 0.5 % dose/g
- Radioactivity Distribution, Kidney ([4]; 15 min): 4.5 ± 0.4 % dose/g
- Radioactivity Distribution, Large intestine ([4]; 15 min): 1.8 ± 0.2 % dose/g
- Radioactivity Distribution, Liver ([4]; 15 min): 3.0 ± 0.3 % dose/g
- Radioactivity Distribution, Lung ([4]; 15 min): 4.9 ± 0.3 % dose/g
- Radioactivity Distribution, Pancreas ([4]; 15 min): 2.8 ± 0.1 % dose/g
- Radioactivity Distribution, Small intestine ([4]; 15 min): 4.6 ± 0.9 % dose/g
- Radioactivity Distribution, Spleen ([4]; 15 min): 3.2 ± 0.3 % dose/g
- Radioactivity Distribution, Stomach ([4]; 15 min): 12.1 ± 2.0 % dose/g
- Radioactivity Distribution, Thyroid ([4]; 15 min): 349.4 ± 115.9 % dose/g
- Adrenal gland/Blood ratio ([4]; 30 min): 0.74 ± 0.40
- Adrenal gland/Kidney ratio ([4]; 30 min): 0.75 ± 0.20
- Adrenal gland/Liver ratio ([4]; 30 min): 1.82 ± 0.53
- Radioactivity Distribution, Adrenal gland ([4]; 30 min): 2.3 ± 1.2 % dose/g
- Radioactivity Distribution, Blood ([4]; 30 min): 3.1 ± 0.3 % dose/g
- Radioactivity Distribution, Heart ([4]; 30 min): 1.3 ± 0.1 % dose/g
- Radioactivity Distribution, Kidney ([4]; 30 min): 3.5 ± 0.9 % dose/g
- Radioactivity Distribution, Large intestine ([4]; 30 min): 1.6 ± 0.2 % dose/g
- Radioactivity Distribution, Liver ([4]; 30 min): 1.5 ± 0.2 % dose/g
- Radioactivity Distribution, Lung ([4]; 30 min): 3.6 ± 1.6 % dose/g
- Radioactivity Distribution, Pancreas ([4]; 30 min): 1.7 ± 0.1 % dose/g
- Radioactivity Distribution, Small intestine ([4]; 30 min): 4.0 ± 0.4 % dose/g
- Radioactivity Distribution, Spleen ([4]; 30 min): 2.2 ± 0.3 % dose/g
- Radioactivity Distribution, Stomach ([4]; 30 min): 25.0 ± 6.4 % dose/g
- Radioactivity Distribution, Thyroid ([4]; 30 min): 486.5 ± 245.4 % dose/g
- Adrenal gland/Blood ratio ([4]; 60 min): 0.82 ± 0.16
- Adrenal gland/Kidney ratio ([4]; 60 min): 0.84 ± 0.21
- Adrenal gland/Liver ratio ([4]; 60 min): 1.90 ± 0.47
- Radioactivity Distribution, Adrenal gland ([4]; 60 min): 1.7 ± 1.3 % dose/g
- Radioactivity Distribution, Blood ([4]; 60 min): 2.9 ± 0.2 % dose/g
- Radioactivity Distribution, Heart ([4]; 60 min): 1.0 ± 0.0 % dose/g
- Radioactivity Distribution, Kidney ([4]; 60 min): 2.7 ± 0.6 % dose/g
- Radioactivity Distribution, Large intestine ([4]; 60 min): 1.7 ± 0.5 % dose/g
- Radioactivity Distribution, Liver ([4]; 60 min): 1.2 ± 0.1 % dose/g
- Radioactivity Distribution, Lung ([4]; 60 min): 2.4 ± 0.1 % dose/g
- Radioactivity Distribution, Pancreas ([4]; 60 min): 1.5 ± 0.1 % dose/g
- Radioactivity Distribution, Small intestine ([4]; 60 min): 4.0 ± 0.4 % dose/g
- Radioactivity Distribution, Spleen ([4]; 60 min): 1.6 ± 0.2 % dose/g
- Radioactivity Distribution, Stomach ([4]; 60 min): 31.3 ± 11.2 % dose/g
- Radioactivity Distribution, Thyroid ([4]; 60 min): 1298.8 ± 729.1 % dose/g
- Adrenal gland/Blood ratio ([4]; 120 min): 0.86 ± 0.46
- Adrenal gland/Kidney ratio ([4]; 120 min): 0.87 ± 0.42
- Adrenal gland/Liver ratio ([4]; 120 min): 0.73 ± 0.42
- Radioactivity Distribution, Adrenal gland ([4]; 120 min): 2.1 ± 1.4 % dose/g
- Radioactivity Distribution, Blood ([4]; 120 min): 2.3 ± 0.5 % dose/g
- Radioactivity Distribution, Heart ([4]; 120 min): 0.8 ± 0.2 % dose/g
- Radioactivity Distribution, Kidney ([4]; 120 min): 2.7 ± 1.6 % dose/g
- Radioactivity Distribution, Large intestine ([4]; 120 min): 2.4 ± 1.0 % dose/g
- Radioactivity Distribution, Liver ([4]; 120 min): 1.0 ± 0.2 % dose/g
- Radioactivity Distribution, Lung ([4]; 120 min): 2.0 ± 0.4 % dose/g
- Radioactivity Distribution, Pancreas ([4]; 120 min): 1.3 ± 0.3 % dose/g
- Radioactivity Distribution, Small intestine ([4]; 120 min): 3.0 ± 0.6 % dose/g
- Radioactivity Distribution, Stomach ([4]; 120 min): 27.4 ± 5.2 % dose/g
- Radioactivity Distribution, Thyroid ([4]; 120 min): 1400.6 ± 695.3 % dose/g
